Data set [1] in a line: MTT cytotoxicity assay. The format is cell-based, African green monkey. The following applies: African green monkey. Here is the method: (§1) All the cell lines were cultured at 37°C with 5% CO2. […] ACV-resistant HSV-1 was generated in our previous study.
(§2) The cells were washed with PBS, added with 0.1 mg/mL MTT reagent [3-(4,5-dimethylthiazol-2-yl)-2,5-diphenyl tetrazolium bromide; Sigma] and incubated at 37°C for 5 hours. After incubation, MTT reagent was removed and DMSO was added to each well. The absorbance was then determined by ELISA reader (SpectraMAX 340, Molecular Devices) at the wavelength of 550 nm.
(In general: Formazan colour is commonly taken as a measure of viable cells.)

Data set [2] has as its system HSV-2. Put plainly: Plaque reduction assay. The following applies: for EC50: read-out: EC50 HSV-2. The format is cell-based. How it is done: (§3) African green monkey kidney cells (Vero, ATCC CCL-81) and human epithelial carcinoma cells (HEp-2, ATCC CCL-23 and A549, ATCC CCL-185) were maintained in Dulbecco’s modified Eagle’s medium (DMEM), modified Eagle’s medium (MEM) and RPMI-1640 medium, respectively, supplemented with 10% fetal bovine serum (Gibco), 100 units/mL penicillin, and 100 μg/mL streptomycin. All the cell lines were cultured at 37°C with 5% CO2. HSV-1F (ATCC VR-733) and HSV-2G (ATCC VR-734) stocks were propagated in Vero cells, aliquoted and stored at -80°C. ACV-resistant HSV-1 was generated in our previous study.
(§4) 1X 10^6 Vero cells were seeded onto 6-well culture plates for 24 hours and infected with 100 pfu/well virus at 37°C for 1 hour. […] After 3 days, the cells were fixed with 3.7% formaldehyde and stained with crystal violet. The plaques were counted.
(In general: Plaque reduction counts the foci of infection that form in a cell layer.)

The subject of data set [3] is HSV-1. Put plainly: Plaque reduction assay. Format: cell-based. The note with it: for EC50: read-out: EC50 HSV-1. How it is done: as §3, §4
Data set [4] relates to Acyclovir-resistant HSV-1 (HSV-AR). Description: microbe, parasite or virus in culture. Format: cell-based. The following applies: Human alphaherpesvirus 1, Vero, read-out: EC50 HSV-AR. Here is the method:
as §3, §4

For data set [5], the system named is Vero cells. Description: MTT cytotoxicity assay. The format is cell-based, African green monkey. The following applies: Vero cells, MTT. Here is the method: as §1, §2
The subject of data set [6] is NF-κB. Put plainly: NF-κB translocation analysis by Western blot of nuclear fractions. Format: cell-based. The note with it: HSV-1 infection, nuclear fraction at 3 h.p.i. The text has this: During HSV infection, there are two waves of NF-κB activation. The first-wave of NF-κB activation could enhance ICP0 transcription via binding onto viral ICP0 promoter while the second-wave of NF-κB activation could prevent host cells from apoptosis. […] The nuclear fractions were extracted and applied to NF-κB translocation analysis by Western blot assay. […] After transfection, luciferase activity of pGL-ICP0 Wt transfected cells increased up to 3,000-fold compared with the vector control, pGL, in HSV-1 infection. […] Although it is well known the expression of ICP0 is regulated by NF-κB, the exact NF-κB binding site on ICP0 promoter is not identified yet. […] Only one NF-κB binding site was predicted within the HSV-1 ICP0 promoter. To determine whether the HCWEs-mediated ICP0 suppression was NF-κB-dependent, the predicted NF-κB binding site within pGL-ICP0 Wt was mutated by PCR-based mutagenesis and the resulting plasmid was named as pGL-ICP0 Mut. […] The results implied that HSV-1 ICP0 promoter activity was at least partly regulated by NF-κB.

Data set [7] has as its system HSV-1. Put plainly: Virus pre-treatment assay (plaque assay). The note with it: 100 pfu HSV-1 pretreated, Vero cells, Fig. 9A. The format is cell-based. How it is done: After incubation, HCWEs-pretreated cells were washed with PBS and then infected with 100 pfu HSV. The inhibitory activities were analyzed by plaque assay. […] After 3 hours of incubation, 1X10^6 Vero cells were infected with HCWEs-pretreated virus and then analyzed by plaque assay.

Data set [8] relates to HSV-1. Put plainly: Virus binding to Vero cells, Western blot of cell-bound virus gD. Format: cell-based. The note with it: 1 m.o.i., 4°C.
[9] abbreviates: Vero cells, MTT, read-out: CC50.
Where [10] appears, read: Human alphaherpesvirus 2, Vero cells.
Setting [11] is: Human alphaherpesvirus 1, Vero cells.

What is called CC50 is the concentration that lowers cell viability or growth by half. In general, EC50 refers to the concentration that produces a half-maximal response.

Each structure is given as a SMILES string. Values after ≈ are worked out from the molar mass of the structure shown. Like-named read-outs stand apart in the source and are kept apart here.

Regarding `Nc1nc2c(ncn2COCCO)c(=O)[nH]1` [Acyclovir, acyclovir, reference compound], the CC50 at 3 days in data set [1] (setting [9]) was above 450 µg/mL. Besides, the EC50 was determined as 0.82 µg/mL (≈ 3.64 µM) in data set [2] (setting [10]), 0.74 µg/mL (≈ 3.29 µM) in data set [3] (setting [11]) and 14 µg/mL (≈ 62.3 µM) in data set [4].

As for `O=C(/C=C/c1ccc(O)c(O)c1)O[C@@H]1C[C@](O)(C(=O)O)C[C@@H](O)[C@H]1O` [Chlorogenic acid, chlorogenic acid], the CC50 at 3 days in data set [1] (setting [9]) is 1240 µg/mL (≈ 3510 µM). For the same compound, the concentration for a half-maximal effect (EC50) in data set [2] (setting [10]) and in data set [3] (setting [11]) was above 1240 µg/mL each time.

The compound `O=c1c(O[C@@H]2O[C@H](CO)[C@H](O)[C@H](O)[C@H]2O)c(-c2ccc(O)c(O)c2)oc2cc(O)cc(O)c12` [Hyperin, hyperin] displayed a CC50 in data set [5] above 500 µg/mL. In addition, the “EC50 HSV-2” value in data set [2] (Vero cells) was above 500 µg/mL. In addition, in data set [3] (Vero cells), the “EC50 HSV-1” value was above 500 µg/mL.

As for `O=c1c(O[C@@H]2O[C@H](CO)[C@@H](O)[C@H](O)[C@H]2O)c(-c2ccc(O)c(O)c2)oc2cc(O)cc(O)c12` [Isoquercitrin, isoquercitrin], the “HSV-induced NF-κB translocation / activation” value in data set [6] is “inhibited NF-κB activation”. For the same compound, the CC50 at 3 days in data set [1] (setting [9]) is above 200 µg/mL. Moreover, the values for the 50% effective concentration (EC50) in data set [2] (setting [10]) and in data set [3] (setting [11]) were 0.39 µg/mL (≈ 0.84 µM) and 0.42 µg/mL (≈ 0.904 µM), respectively. Moreover, in data set [3], the “SI HSV-1 (CC50/EC50)” value is above 476.2. Further, the “inhibition of HSV-1 by pretreatment of virus with pure compound” value (“inhibition” for short) in data set [7] was “not”. The “cell binding ability of HSV-1 (Western blot)” value (“cell binding ability” for short) in data set [8] is reported as “not”.

On to `O=c1c(O)c(-c2ccc(O)c(O)c2)oc2cc(O)cc(O)c12` [Quercetin, quercetin], for which the “HSV-induced NF-κB translocation / activation” value in data set [6] is on record as “inhibited NF-κB activation”. For the same compound, the CC50 at 3 days in data set [1] (setting [9]) was 486 µg/mL (≈ 1610 µM). In addition, the “SI HSV-2 (CC50/EC50)” value in data set [2] worked out at 6.94. In addition, the figures for the concentration for a half-maximal effect (EC50) in data set [2] (setting [10]) and in data set [3] (setting [11]) were 70 µg/mL (≈ 232 µM) and 52.9 µg/mL (≈ 175 µM), respectively. Also, the “SI HSV-1 (CC50/EC50)” value in data set [3] came to 9.18. In addition, the “inhibition” value in data set [7] is “targeted virus particles directly and inhibited viral entry”. The “cell binding ability” value in data set [8] was “inhibited the binding of HSV-1 onto host cells”.

Turning to `C[C@@H]1O[C@@H](Oc2c(-c3ccc(O)c(O)c3)oc3cc(O)cc(O)c3c2=O)[C@H](O)[C@H](O)[C@H]1O` [Quercitrin, quercitrin], the CC50 at 3 days in data set [1] (setting [9]) worked out at 142 µg/mL (≈ 317 µM). Moreover, the EC50 was above 142 µg/mL in data set [2] (Human alphaherpesvirus 2, Vero) and above 142 µg/mL in data set [3] (Human alphaherpesvirus 1, Vero).

`C[C@@H]1O[C@@H](OC[C@H]2O[C@@H](Oc3c(-c4ccc(O)c(O)c4)oc4cc(O)cc(O)c4c3=O)[C@H](O)[C@@H](O)[C@@H]2O)[C@H](O)[C@H](O)[C@H]1O` [Rutin, rutin] returned a CC50 at 3 days in data set [1] of 702 µg/mL (≈ 1150 µM). The “SI HSV-2 (CC50/EC50)” value in data set [2] stood at 4.146. Besides, the concentration for a half-maximal effect (EC50) amounted to 169 µg/mL (≈ 278 µM) in data set [2] (setting [10]) and 188 µg/mL (≈ 307 µM) in data set [3] (setting [11]). In addition, in data set [3], the “SI HSV-1 (CC50/EC50)” value is listed as 3.745. In addition, the “inhibition” value in data set [7] is “not”. The “cell binding ability” value in data set [8] is given as “not”.

Values taken from PMC4314066, “Houttuynia cordata Targets the Beginning Stage of Herpes Simplex Virus Infection” (PLoS ONE, 2015).
